Assay results as given in paper PMC7024169, “Synthesis and Antimalarial Activity of 1,4-Disubstituted Piperidine Derivatives” (Molecules, 2020).

What was measured:
[1] = system: Plasmodium falciparum W2 Strain; test: microbe, parasite or virus in culture; assay type: cell-based
[2] = system: Plasmodium falciparum 3D7 Strain; test: Antiplasmodial SYBR Green I assay, chloroquine-sensitive 3D7 strain; assay type: cell-based
[3] = system: HUVEC cells; conditions: human

| Structure (SMILES) | IC50 ([1]; Plasmodium falciparum, W2, 48 h, read-out: IC50 ± SD, Plasmodium falciparum W2 Strain) | IC50 ([2]; Plasmodium falciparum, chloroquine-sensitive 3D7, 48 h incubation, SYBR Green I, read-out: IC50 ± SD, Plasmodium falciparum 3D7 Strain) | CC50 ± SD, HUVEC Cells [3] | Selectivity Index (W2) =CC50/IC50 ([1]; CC50 HUVEC / IC50 W2) | Selectivity Index (3D7) =CC50/IC50 ([2]; CC50 HUVEC / IC50 3D7) |
| --- | --- | --- | --- | --- | --- |
| CCN(CC)CCCC(C)Nc1ccnc2cc(Cl)ccc12 (centres unmarked) [CQ, chloroquine, reference compound] | 134 ± 32.3 nM | 22.4 ± 3.24 nM |  |  |  |
| O=C(COc1ccccc1)N1CCC(N(C(=O)COc2ccccc2)c2ccccc2)CC1 [Compound 10] |  |  | >100 nM | >5.3 | >8.9 |
